Measured values from US20150219624A1, “METHODS FOR IDENTIFYING ANTI-CANCER COMPOUNDS” (MEMORIAL SLOAN KETTERING CANCER CENTER, priority 2013, published 2015).

System: KOPTK1 cells
Experiment: Transcriptome-scale ribosome footprinting (translational efficiency, rDiff ribosome distribution)
Assay type: cell-based, human
Settings: for log2(Translational Efficiency): TE down genes with G-Quadruplex structure
Experimental: Ribosome Footprinting. KOPTK1 cells were treated with silvestrol or DMSO for 45 minutes, followed by cycloheximide treatment for 10 minutes and then harvested for total RNA and ribosome footprint fragment isolation. Total RNA was isolated using RNA isolation kit from Qiagen (74104) and subjected to RNA sequencing. Ribosome protected fragments were isolated following published protocol (Ingolia et al., 2009). Briefly cell lysates were subjected to ribosome footprinting by nuclease treatment. Footprint fragments were purified by one step sucrose cushion and gel extraction. Deep sequencing libraries were generated from these fragments. Both total RNA and footprint fragment libraries were analyzed by sequencing on the HiSeq 2000 platform.
Sequence Alignment. Sequences were aligned to the transcripts available from the human genome sequence hg19 from UCSC public database. Ribosome footprint (RF) reads were aligned to reference genome hg19 using PALMapper (Jean et al., 2010). Only the uniquely aligned reads were used for analysis. Read length of 25- to 35-bp was selected and used to analyze the translation effect of silvestrol. Total mRNA sequencing reads were aligned to the hg19 reference using STAR (Dobin et al., 2013). The splice alignment was used, and only used the uniquely aligned reads with maximum 3 mismatches.
Footprint Profile Analysis. The genome annotation was from GENCODE project (http://www.gencodegenes.org/releases/14.html). Ribosome footprint intensity (reads per million, RPM) and the expression value (reads per kilobase per million, RPKM) were measured from total mRNA-seq data and translation values were measured from ribosome footprint data. To evaluate the translation efficiency (TE) change between silvestrol- and vehicle-treated samples, TE was calculated as RPKMfootprint/RPKMmRNA (as Thoreen et al. did recently (Thoreen et al., 2012)). Changes in ribosome footprint profiles were determined by using DEXSeq algorithm (Anders et al., 2012). DEXSeq accounts for the discrete nature of the read counts and models biological variability to avoid false positives. Ratio of TEsilvestrol/TEcontrol of all the genes was plotted and color-highlighted according to the statistical significance of DEXSeq test.
Ribosome distribution analysis. The ribosomal distribution change was evaluated between silvestrol treated samples and controls. A BED file containing all non-overlapped exonic regions was generated based on genome annotation. Then the BED file and footprint BAM files were given as an input to SAMTOOLS (Li et al., 2009a) to generate new BAM files that only included exonic alignment. The exonic BAM files were input for two conditions to rDiff (Drewe et al., 2013) to identify genes that presented significant change in ribosomal distribution.
Sequence Alignment. The human genome sequence hg19 was downloaded from UCSC public database: http://hgdownload.cse.ucsc.edu/goldenPath/hg19/chromosomes. Ribosome footprint (RF) reads were aligned to reference genome hg19 using PALMapper (Jean et al., 2010). PALMapper clips the linker sequence (5′-[…]-3′), which is technically introduced during RF library construction, and trims the remaining sequence from the 3′ end while aligning the reads to reference sequence. Briefly, the parameters for PALMapper were set as follows: maximum number of mismatches: 2; maximum number of gaps: 0; minimum aligning length: 15; maximum intron length (splice alignment): 10000; minimum length of a splicing read aligned to either side of the intron boundary: 10. Only the uniquely aligned reads were used for further analysis.
To remove ribosome RNA contamination, the footprint reads were also aligned to a ribosome sequence database using PALMapper with the same parameters except allowing splice alignment. […]

COC(=O)[C@H]1[C@@H](O)[C@@]2(O)c3c(OC)cc(O[C@@H]4O[C@@H]([C@H](O)CO)CO[C@H]4OC)cc3O[C@@]2(c2ccc(OC)cc2)[C@@H]1c1ccccc1 [silvestrol]
effect on cap-dependent translation (ribosome footprints) (25 nM, 45 minutes): immediate and broad inhibitory effect
log2(Translational Efficiency) (gene ADAM10 (ENSG00000137845)): −0.2089
log2(Translational Efficiency) (gene AFTPH (ENSG00000119844)): −0.5917
log2(Translational Efficiency) (gene ATP2B4 (ENSG00000058668)): −0.3028
log2(Translational Efficiency) (gene BCL11B (ENSG00000127152)): −0.5178
log2(Translational Efficiency) (gene C16orf72 (ENSG00000182831)): −0.2553
log2(Translational Efficiency) (gene CAMK2D (ENSG00000145349)): −0.4082
log2(Translational Efficiency) (gene CCRN4L (ENSG00000151014)): −0.4802
log2(Translational Efficiency) (gene CDIPT (ENSG00000103502)): −0.324
log2(Translational Efficiency) (gene CERS6 (ENSG00000172292)): −0.2051
log2(Translational Efficiency) (gene CHIC2 (ENSG00000109220)): −0.5212
log2(Translational Efficiency) (gene CHST11 (ENSG00000171310)): −0.146
log2(Translational Efficiency) (gene CPSF4 (ENSG00000160917)): −0.3194
log2(Translational Efficiency) (gene DIAPH1 (ENSG00000131504)): −0.2136
log2(Translational Efficiency) (gene DOM3Z (ENSG00000204348)): −0.5959
log2(Translational Efficiency) (gene DYNLL2 (ENSG00000121083)): −0.1378
log2(Translational Efficiency) (gene EP300 (ENSG00000100393)): −0.4645
log2(Translational Efficiency) (gene FAM49B (ENSG00000153310)): −0.1392
log2(Translational Efficiency) (gene FKRP (ENSG00000181027)): −0.996
log2(Translational Efficiency) (gene FOXJ2 (ENSG00000065970)): −0.4735
log2(Translational Efficiency) (gene GABARAPL1 (ENSG00000139112)): −1.234
log2(Translational Efficiency) (gene GIPC1 (ENSG00000123159)): −0.4783
log2(Translational Efficiency) (gene GNB1 (ENSG00000078369)): −0.1338
log2(Translational Efficiency) (gene GYG2 (ENSG00000056998)): −0.9297
log2(Translational Efficiency) (gene HDGFRP3 (ENSG00000166503)): −0.6088
log2(Translational Efficiency) (gene HIPK1 (ENSG00000163349)): −0.2827
log2(Translational Efficiency) (gene ITPR1 (ENSG00000150995)): −0.6283
log2(Translational Efficiency) (gene MAP3K2 (ENSG00000169967)): −0.377
log2(Translational Efficiency) (gene MAPKAPK2 (ENSG00000162889)): −0.3527
log2(Translational Efficiency) (gene MBNL1 (ENSG00000152601)): −0.1522
log2(Translational Efficiency) (gene MED13 (ENSG00000108510)): −0.2939
log2(Translational Efficiency) (gene MED13L (ENSG00000123066)): −0.4159
log2(Translational Efficiency) (gene MGRN1 (ENSG00000102858)): −0.3096
log2(Translational Efficiency) (gene MTA2 (ENSG00000149480)): −0.2235
log2(Translational Efficiency) (gene MYO9A (ENSG00000066933)): −0.4735
log2(Translational Efficiency) (gene NANS (ENSG00000095380)): −0.3218
log2(Translational Efficiency) (gene NDFIP1 (ENSG00000131507)): −0.2429
log2(Translational Efficiency) (gene PABPC4 (ENSG00000090621)): −0.2428
log2(Translational Efficiency) (gene PAFAH1B1 (ENSG00000007168)): −0.3832
log2(Translational Efficiency) (gene PAFAH1B2 (ENSG00000168092)): −0.3883
log2(Translational Efficiency) (gene PAIP2 (ENSG00000120727)): −0.1573
log2(Translational Efficiency) (gene PAK4 (ENSG00000130669)): −0.628
log2(Translational Efficiency) (gene PANX1 (ENSG00000110218)): −0.3987
log2(Translational Efficiency) (gene PATZ1 (ENSG00000100105)): −0.3245
log2(Translational Efficiency) (gene PPP6R1 (ENSG00000105063)): −0.1576
log2(Translational Efficiency) (gene PTGER4 (ENSG00000171522)): −0.2748
log2(Translational Efficiency) (gene PTP4A2 (ENSG00000184007)): −0.1429
log2(Translational Efficiency) (gene QKI (ENSG00000112531)): −0.2913
log2(Translational Efficiency) (gene RFXANK (ENSG00000064490)): −0.3247
log2(Translational Efficiency) (gene RNF4 (ENSG00000063978)): −0.3442
log2(Translational Efficiency) (gene RNF19A (ENSG00000034677)): −0.4839
log2(Translational Efficiency) (gene RPS12 (ENSG00000112306)): −0.1732
log2(Translational Efficiency) (gene SHISA2 (ENSG00000180730)): −0.6086
log2(Translational Efficiency) (gene SLC25A22 (ENSG00000177542)): −0.3386
log2(Translational Efficiency) (gene SLC35B3 (ENSG00000124786)): −0.9178
log2(Translational Efficiency) (gene SMEK1 (ENSG00000100796)): −0.1765
log2(Translational Efficiency) (gene SRRM2 (ENSG00000167978)): −0.08166
log2(Translational Efficiency) (gene STAG2 (ENSG00000101972)): −0.1873
log2(Translational Efficiency) (gene TAF6 (ENSG00000106290)): −0.2102
log2(Translational Efficiency) (gene TBC1D24 (ENSG00000162065)): −1.231
log2(Translational Efficiency) (gene TGFB1 (ENSG00000105329)): −0.2213
log2(Translational Efficiency) (gene TLE3 (ENSG00000140332)): −0.2278
log2(Translational Efficiency) (gene TMEM248 (ENSG00000106609)): −0.2362
log2(Translational Efficiency) (gene TNRC6B (ENSG00000100354)): −0.4442
log2(Translational Efficiency) (gene TRIM2 (ENSG00000109654)): −2.147
log2(Translational Efficiency) (gene TUBGCP4 (ENSG00000137822)): −0.5346
log2(Translational Efficiency) (gene UBE2G1 (ENSG00000132388)): −0.3367
log2(Translational Efficiency) (gene USP20 (ENSG00000136878)): −0.2066
log2(Translational Efficiency) (gene ZNF48 (ENSG00000180035)): −0.5828
log2(Translational Efficiency) (gene ZNF800 (ENSG00000048405)): −0.2711
